# Measured values from patent US5925571A, “Method of testing immune competency” (Oxi-Gene, Inc., priority 1997, dated 1999).
# Legend:
# [1] = tested on: ADPRT (adenosine diphosphate ribosyl transferase) in HML; assay: PMA induced ADPRT activity in HML treated with HOCl or chloramine T (permeabilized cell radiometric assay); type: cell-based, human; conditions: doses of 80 μM; 30 min at 37° C., then PMA 25 ng/ml for 30 min; versus zero-dose control; FIG. 2
# Protocol: (§1) ADPRT assay.--The procedure was adapted from the permeabilized cell technique of Berger (Methods Cell Biol. 20:325-340, 1988) with modifications as previously described (Pero et al, Carcinogenesis 10:1657-64, 1989). Duplicate samples of 1×10^6 HML in the presence of 0 to 4×10^6 neutrophils were cultured in 1 ml of KRPG buffer for 30 min at 37° C. in the presence of PMA (phorbol-12-myristate-13-acetate, 25 ng/ml). After this co-incubation, the HML+ neutrophil mixtures were harvested by centrifugation, permeabilized, and ADPRT activity determined by radiometric procedure as described in detail elsewhere (Pero et al, Carcinogenesis 10:1657-64, 1989). […]
# The effect of various dosage levels of chloramine T and HOCl on PMA induced ADPRT activity in HML was investigated utilizing the procedures described above for such tests, measuring the PMA induced ADPRT activity for HML subjected to the various dosages, and comparing the values obtained with measured control values of PMA induced ADPRT activity in HML from the same source but with zero dosages of chloramine T and HOCl.
# [2] = tested on: ADPRT (ADP-ribosylation) in HML; assay: HML + neutrophil co-culture exposed to PMA: HML ADP-ribosylation versus HOCl production; type: cell-based, human; conditions: 1×10^6 HML with 0 to 4×10^6 neutrophils, PMA 25 ng/ml, 30 min at 37° C.; FIG. 1
# Protocol: HOCl measurement.--Mixed cultures of HML+ neutrophils were assayed for the production of HOCl in the extracellular conditioned medium by removal of the cells by centrifugation following the incubation period, and immediately trapping the produced HOCl with taurine (20 mM). Taurine chloramine was then quantified spectrophotometrically by using the conversion of I^- to I2 (E=2.29×10^4 M^-1 cm^-1). Details of this procedure have been described by Weiss et al (J. Clin. Invest. 70:598-607, 1982).
# as §1
# This Example establishes that human phagocytes (i.e. neutrophils) produce physiologic relevant concentrations of endogenous ADPRT inhibitors. […] The respiratory burst induced by PMA exposure of neutrophils was monitored by HOCl production. […]
Structure (SMILES),inhibition of HML ADPRT activity [1],produced concentration sufficient to cause inhibition of HML ADP-ribosylation [2]
OCl [HOCl],> 80%,about 80 μM
"Cc1ccc(S(=O)(=O)[N-]Cl)cc1.[Na+] [N-chloramine, chloramine T]",> 80%,about 80 μM
